According to patent publication US8304446B2, “Compounds” (Glaxo Group Limited, priority 2009, dated 2012):
Where a name gives a salt, the structure may show the parent alone.

What follows are compounds tested on CD4+ CCR4+ T cells (assay: Chemokine stimulated increases in cellular F-actin content). Conditions: Homo sapiens, T-cell, 0.5 h; PBMC from normal volunteers; antagonist 30 min at 37° C. before agonist for 15 sec; F-actin content by flow cytometry; read-out: pA2 (converted).
Format: cell-based
Method: Chemokine Stimulated Increases in Cellular F-Actin Content
Blood was taken from normal volunteers who had taken no medication within the previous ten days and mixed with 1/9 of the volume of 3.8% tri-sodium citrate solution. Chemokine-induced increases in the F-actin content of CD4+ CCR4+ T cells were measured by a modification of the method of Pilette et al. (Eur. Respir. J; 23: 876-884, 2004). Peripheral blood mononuclear cells (PBMC) were isolated by dextran sedimentation followed by Percoll density gradient centrifugation. The PBMCs were incubated with FITC-conjugated anti-human CD4 and PE-conjugated anti-CCR4 antibodies or appropriate isotype controls for 15 min. The cell suspensions were then centrifuged at 400 g for 10 min and the pellets resuspended in assay buffer (phenol red-free RPMI 1640 medium containing 10 mM HEPES and 0.1% bovine serum albumin) at 10^7/mL. The resulting cell suspension was incubated with antagonist or vehicle (0.1% DMSO) for 30 min at 37° C. before stimulation with the agonist for 15 sec. The assay was terminated by addition of 3% formaldehyde. The fixed cells were washed twice with PBS (centrifuging at 1000 g for 5 min to recover the cells) and incubated at room temperature with Alexa fluor-647 phalloidin (0.075 U/mL) in the presence of lyso-phosphatidylcholine (93.75 μg/ml) for 20 min to stain F-actin. The cells were washed once more with PBS and the relative F-actin content of the cells was measured flow cytometrically. The mean fluorescence intensity of 1000 CD4^+ CCR4^+ cells per sample was determined and expressed as a fraction of the mean intensity of the CD4^+ CCR4^− cells in that sample.

Row | SMILES | Kb
1 | COc1cccc2c1c(NS(=O)(=O)c1ccc(Cl)s1)nn2Cc1cccc(CNC(C)=O)c1 [Example 1, N-[(3-{[3-{[(5-Chloro-2-thienyl)sulfonyl]amino}-4-(methyloxy)-1H-indazol-1-yl]methyl}phenyl)methyl]acetamide] | ≤ 126 nM
2 | COc1cccc2c1c(NS(=O)(=O)c1ccc(Cl)s1)nn2Cc1cccc(CNC=O)c1 [Example 5, 5-Chloro-N-[1-({3-[(formylamino)methyl]phenyl}methyl)-4-(methyloxy)-1H-indazol-3-yl]-2-thiophenesulfonamide] | ≤ 126 nM
3 | COc1cccc2c1c(NS(=O)(=O)c1ccc(Cl)s1)nn2Cc1cccc(CNC(=O)[C@H]2CCCCN2)c1 [Example 9, (2R)—N-[(3-{[3-{[(5-chloro-2-thienyl)sulfonyl]amino}-4-(methyloxy)-1H-indazol-1-yl]methyl}phenyl)methyl]-2-piperidinecarboxamide trifluoroacetate salt] | ≤ 126 nM
4 | COc1cccc2c1c(NS(=O)(=O)c1ccc(Cl)s1)nn2Cc1cccc(CNC(=O)C(C)(C)CN)c1 [Example 11, 3-Amino-N-[(3-{[3-{[(5-chloro-2-thienyl)sulfonyl]amino}-4-(methyloxy)-1H-indazol-1-yl]methyl}phenyl)methyl]-2,2-dimethylpropanamide hydrochloride] | ≤ 126 nM
5 | CNCC(=O)NCc1cccc(Cn2nc(NS(=O)(=O)c3ccc(Cl)s3)c3c(OC)cccc32)c1 [Example 12, N^1-[(3-{[3-{[(5-chloro-2-thienyl)sulfonyl]amino}-4-(methyloxy)-1H-indazol-1-yl]methyl}phenyl)methyl]-N^2-methylglycinamide hydrochloride] | ≤ 126 nM
6 | COc1cccc2c1c(NS(=O)(=O)c1ccc(Cl)s1)nn2Cc1cccc(CNC(=O)[C@@]2(C)CCCN2)c1 [Example 13, N-[(3-{[3-{[(5-Chloro-2-thienyl)sulfonyl]amino}-4-(methyloxy)-1H-indazol-1-yl]methyl}phenyl)methyl]-2-methyl-D-prolinamide] | ≤ 126 nM
7 | COc1cccc2c1c(NS(=O)(=O)c1ccc(Cl)s1)nn2Cc1cccc(CNC(=O)C2(C)CCCCN2)c1 (stereo not drawn) [Example 14, N-[(3-{[3-{[(5-chloro-2-thienyl)sulfonyl]amino}-4-(methyloxy)-1H-indazol-1-yl]methyl}phenyl)methyl]-2-methyl-2-piperidinecarboxamide] | ≤ 126 nM
8 | CNC1(C(=O)NCc2cccc(Cn3nc(NS(=O)(=O)c4ccc(Cl)s4)c4c(OC)cccc43)c2)CC1 [Example 15, N-[(3-{[3-{[(5-Chloro-2-thienyl)sulfonyl]amino}-4-(methyloxy)-1H-indazol-1-yl]methyl}phenyl)methyl]-1-(methylamino)cyclopropanecarboxamide hydrochloride] | ≤ 126 nM
9 | COc1cccc2c1c(NS(=O)(=O)c1ccc(Cl)s1)nn2Cc1cccc(CNC(=O)[C@@H](C)N)c1 [Example 19, N^1-[(3-{[3-{[(5-chloro-2-thienyl)sulfonyl]amino}-4-(methyloxy)-1H-indazol-1-yl]methyl}phenyl)methyl]-D-alaninamide trifluoroacetate] | ≤ 126 nM
10 | COc1cccc2c1c(NS(=O)(=O)c1ccc(Cl)s1)nn2Cc1cccc(CNC(=O)CN)c1 [Example 20, N^1-[(3-{[3-{[(5-chloro-2-thienyl)sulfonyl]amino}-4-(methyloxy)-1H-indazol-1-yl]methyl}phenyl)methyl]glycinamide trifluoroacetate] | ≤ 126 nM
11 | CNC(=O)[C@@H](N)CC(=O)NCc1cccc(Cn2nc(NS(=O)(=O)c3ccc(Cl)s3)c3c(OC)cccc32)c1 [Example 22, N^4-[(3-{[3-{[(5-chloro-2-thienyl)sulfonyl]amino}-4-(methyloxy)-1H-indazol-1-yl]methyl}phenyl)methyl]-N^1-methyl-L-aspartamide trifluoroacetate] | ≤ 126 nM
12 | COC(=O)[C@@H](N)CC(=O)NCc1cccc(Cn2nc(NS(=O)(=O)c3ccc(Cl)s3)c3c(OC)cccc32)c1 [Example 23, Methyl N^4-[(3-{[3-{[(5-chloro-2-thienyl)sulfonyl]amino}-4-(methyloxy)-1H-indazol-1-yl]methyl}phenyl)methyl]asparaginate trifluoroacetate] | ≤ 126 nM
13 | COc1cccc2c1c(NS(=O)(=O)c1ccc(Cl)s1)nn2Cc1cccc(CNC(=O)CC2CCCN2)c1 (stereo not drawn) [Example 24, N-[(3-{[3-{[(5-chloro-2-thienyl)sulfonyl]amino}-4-(methyloxy)-1H-indazol-1-yl]methyl}phenyl)methyl]-2-(2-pyrrolidinyl)acetamide trifluoroacetate] | ≤ 126 nM
14 | COc1cccc2c1c(NS(=O)(=O)c1ccc(Cl)s1)nn2Cc1cccc(CNC(=O)CC(C)N)c1 (stereo not drawn) [Example 25, 3-Amino-N-[(3-{[3-{[(5-chloro-2-thienyl)sulfonyl]amino}-4-(methyloxy)-1H-indazol-1-yl]methyl}phenyl)methyl]butanamide trifluoroacetate] | ≤ 126 nM
15 | CNCCC(=O)NCc1cccc(Cn2nc(NS(=O)(=O)c3ccc(Cl)s3)c3c(OC)cccc32)c1 [Example 29, N^1-[(3-{[3-{[(5-Chloro-2-thienyl)sulfonyl]amino}-4-(methyloxy)-1H-indazol-1-yl]methyl}phenyl)methyl]-N^3-methyl-β-alaninamide trifluoroacetate] | ≤ 126 nM
16 | COCC(=O)NCc1cccc(Cn2nc(NS(=O)(=O)c3ccc(Cl)s3)c3c(OC)cccc32)c1 [Example 30, N-[(3-{[3-{[(5-Chloro-2-thienyl)sulfonyl]amino}-4-(methyloxy)-1H-indazol-1-yl]methyl}phenyl)methyl]-2-(methyloxy)acetamide] | ≤ 126 nM
17 | COc1cccc2c1c(NS(=O)(=O)c1ccc(Cl)s1)nn2Cc1cccc(CNC(=O)[C@H](C)N(C)C)c1 [Example 31, N^1-[(3-{[3-{[(5-Chloro-2-thienyl)sulfonyl]amino}-4-(methyloxy)-1H-indazol-1-yl]methyl}phenyl)methyl]-N^2,N^2-dimethylalaninamide trifluoroacetate] | ≤ 126 nM
18 | COc1cccc2c1c(NS(=O)(=O)c1ccc(Cl)s1)nn2Cc1cccc(CNC(=O)CO)c1 [Example 32, N-[(3-{[3-{[(5-Chloro-2-thienyl)sulfonyl]amino}-4-(methyloxy)-1H-indazol-1-yl]methyl}phenyl)methyl]-2-hydroxyacetamide] | ≤ 126 nM
19 | COc1cccc2c1c(NS(=O)(=O)c1ccc(Cl)s1)nn2Cc1cccc(CNC(=O)C(C)(C)N(C)C)c1 [Example 34, N^1-[(3-{[3-{[(5-Chloro-2-thienyl)sulfonyl]amino}-4-(methyloxy)-1H-indazol-1-yl]methyl}phenyl)methyl]-N^2,N^2,2-trimethylalaninamide trifluoroacetate] | ≤ 126 nM
20 | COCCN(C)CC(=O)NCc1cccc(Cn2nc(NS(=O)(=O)c3ccc(Cl)s3)c3c(OC)cccc32)c1 [Example 36, N^1-[(3-{[3-{[(5-Chloro-2-thienyl)sulfonyl]amino}-4-(methyloxy)-1H-indazol-1-yl]methyl}phenyl)methyl]-N^2-methyl-N^2-[2-(methyloxy)ethyl]glycinamide trifluoroacetate] | ≤ 126 nM
21 | COc1cccc2c1c(NS(=O)(=O)c1ccc(Cl)s1)nn2Cc1cccc(CNC(=O)c2cnco2)c1 [Example 38, N-[(3-{[3-{[(5-Chloro-2-thienyl)sulfonyl]amino}-4-(methyloxy)-1H-indazol-1-yl]methyl}phenyl)methyl]-1,3-oxazole-5-carboxamide] | ≤ 126 nM
